Test results taken from patent publication US6228889A, “Methods for treatment of conditions associated with lactosylceramide” (priority 1999, dated 2001).
Structures can show the parent of a compound that is named as a salt. Where two headings read alike, the source gives them in different places.

Assays:
ICAM-1 = details: for effect on LacCer mediated stimulation of ICAM-1 expression: 5 μM LacCer 4 hours, DPI 10 μM 30 minutes, NAC 15 mM 30 minutes, PDTC 100 μM 1 hour
PMNs [1] = assay: ROM generation by PMNs (DCFH-DA); type: cell-based, human; details: 100 or 200 nmol/L LacCer
Mac-1 (CD11b/CD18) = details: for Mac-1 expression on PMNs, other GSL: 100 nmol/L, 20 minutes
[2] = tested on: neutrophil adhesion to Eahy 926 cells; assay: Confocal microscopic study of adhesion of human neutrophils to Eahy 926 endothelial cells; type: cell-based; details: endothelial cells preincubated with 10 μM DPI or 15 mM NAC 30 minutes, then 5 μM LacCer 4 hours
Eahy 926 cells = assay: Superoxide production by intact Eahy 926 (lucigenin chemiluminescence); type: cell-based, human; details: 5 μM LacCer; DPI 10 μM 30 minutes, NAC 15 mM 30 minutes, SOD exogenously added (200 U/ml), allopurinol
[3] = tested on: PMN adhesion to unstimulated endothelial cells; assay: PMN-endothelial adhesion assay; type: cell-based, human; details: 100 nmol/L LacCer; anti-CD18 5 μg/ml; quinacrine increasing doses
Method: 12. PMN-Endothelial Adhesion Assay. PMNs were labeled fluorescently by incubation with 5 μmol/L Calcein-AM (Molecular Probes) in calcium-free PBS for 20 minutes at 37° C., washed and resuspended in Hanks' balanced salt solution (Gibco) containing 0.2% bovine serum albumin (BSA). These PMNs were then treated with LacCer (or vehicle, 0.05% DMSO), washed 3 times with PBS and then plated on the unstimulated ec monolayers, which had been grown to confluence in 24-well plates. The PMNs (600 μL of 2×10^6 /mL/well) then were incubated with the ecs for 30 minutes at 37° C. Non-adherent PMNs were then removed by gentle washing 3 times with PBS. The residual adherent PMNs (and ecs) were then lysed using 4mmol/L Zwittergent Calbiochem, La Jolla, Calif.) and the plates read on a fluorescence plate reader (Millipore) at EX 480 nm/EM 530 nm. The number of adherent PMNs were expressed as number of PMN/mm^2 ec monolayer, based on the mean fluorescent intensity of each PMN, as determined from a standard curve. 13. Additional Methods. LacCer, ceramide and […] (all from Sigma) were prepared as described in examples below, and used as putative agonists for the stimulation of PMN adhesion molecule expression, assayed by FACScan. […]

GalT-2 [4] = assay: GalT-2 activity in endothelial cells; type: cell-based, human
Method: Particularly preferred are GalT-2 assays conducted with the ASMCs and performed in accordance with previously described methods. See e.g., Chatterjee, S., and Castiglione, E. (1987) Biochem. Biophys. Acta, 923:136; and Chatterjee, (1991) S. Biochem. Biophys. Res Comm., 181:554.
Another preferred assay of the invention includes the following steps a) through d):
a) culturing a population of LacCer-responsive cells preferably to confluency in lipoprotein-deficient serum medium, e.g., about 1 mg lipoprotein-deficient serum/protein/ml of medium or less;
b) harvesting the cells preferably in a suitable dispersive buffer, e.g., cacodylate buffer,
c) incubating the harvested cells preferably with a detectably labeled molecule such as a detectably-labeled nucleoside diphosphate sugar donor such as [^14 C]-UDP-galactose typcially in an amount between about 0. 1 to 100 μCi; and
d) measuring LacCer formation as indicative of the activity of the GalT-2 enzyme.

PMNs [5] = assay: Superoxide generation in PMNs (lucigenin); type: cell-based, human; details: SOD 500 U/ml, DPI 10 μM/L, apocyanin 90 μmol/L, about 15 minutes preincubation; 100 nmol LacCer 20 minutes
GlcT-1 = target: T1, GlcT-1 (Homo sapiens, UniProt Q16739); details: reported in literature; cited from earlier work
T1 sequence (Q16739 1-394): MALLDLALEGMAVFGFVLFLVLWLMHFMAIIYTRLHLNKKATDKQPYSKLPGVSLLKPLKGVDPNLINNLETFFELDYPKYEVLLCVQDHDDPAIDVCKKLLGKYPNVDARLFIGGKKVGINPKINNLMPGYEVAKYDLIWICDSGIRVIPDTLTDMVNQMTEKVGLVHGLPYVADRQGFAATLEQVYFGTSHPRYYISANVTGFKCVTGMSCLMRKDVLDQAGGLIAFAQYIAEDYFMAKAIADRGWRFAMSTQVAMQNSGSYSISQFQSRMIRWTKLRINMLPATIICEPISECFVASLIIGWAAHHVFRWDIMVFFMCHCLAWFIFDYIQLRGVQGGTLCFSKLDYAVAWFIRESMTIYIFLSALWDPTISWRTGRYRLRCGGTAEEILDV

intimal proliferation = assay: Intimal proliferation following balloon angioplasty in rabbits (aorta histology); type: in vivo; details: rabbit aorta; 10 mg/kg intramuscular daily for six weeks after balloon angioplasty
Excerpt: A rabbit model of restenosis accompanying an invasive surgical procedure such as balloon angioplasty is preferred. One suitable protocol involves administering to the rabbit a suitable vehicle or vehicle combined with one or more GalT-2 inhibitor compounds of interest. The amount of the GalT-2 inhibitor compound administered will vary depending on several parameters including the extent of damage associated with the surgical procedure of interest. In instances where balloon angioplasty is employed, the rabbit will typically receive a candidate GalT-2 inhibitor compound in a dose (e.g., i.m. or i.p.) of between about 0.5 to 100, preferably 1 to 20 and more preferably about 10 mg/kg body weight of the rabbit. A preferred dosage schedule provides for administration of a GalT-2 inhibitor compound starting 24 hurs prior to conducting an invasive surgical procedure, and then continuing administration of the GalT-2 inhibitor compound for 15 days following the surgical procedure. In other protocols, daily injections of the GalT-2 inhibitor compound may be made for about 2 to 12 weeks following the invasive surgical procedure. […] Subsequently, the rabbits are euthanized and a vessel removed for examination, preferably the aorta The vessel is then fixed with formalin and analyzed for proliferation of vascular endothelia, media and advantitia using standard histological procedures. […]

GalT-2 [6] = assay: GalT-2 activity in thoracic aorta of balloon angioplasty rabbits; type: in vivo; details: rabbit thoracic aorta; 10 mg/kg intramuscular, 15 days
Method: (§1) Experiments were performed on rabbits to examine the effects of D-PDMP on aortic stenosis following balloon angioplasty. The rabbits were given intramuscular injection of D-PDMP (10 mg/kg) or vehicle 24 hours prior to balloon angioplasty and this regimen was continued for 15 days. Next, the thoracic aorta was harvested, the glycosphingolipids was measured by HPLC analysis, and GalT-2 activity was measured employing assays described above.

GlcCer, LacCer = assay: Glycosphingolipid levels (HPLC) in thoracic aorta of balloon angioplasty rabbits; type: in vivo; details: rabbit thoracic aorta
Method: as §1

vascular cells = details: reported in literature; cited from earlier work
[7] = inhibitor 20 minutes, then 100 nmol/L LacCer 20 minutes, BPB 10 μmol/L
[8] = endothelial cells, TNF-α as stimulant
[9] = endothelial cells preincubated with D-PDMP
[10] = balloon angioplasty, 10 mg/kg intramuscular from 24 hours prior, continued for 15 days

CC(=O)N[C@@H](CS)C(=O)O [NAC, N-acetylcysteine]
effect on LacCer mediated stimulation of ICAM-1 expression (ICAM-1): inhibited
effect on neutrophil ROM generation induced by LacCer (PMNs [1]): inhibited
effect on LacCer-stimulated Mac-1 upregulation on PMNs (Mac-1 (CD11b/CD18); [7]): did not inhibit
effect on LacCer-induced neutrophil adhesion [2]: attenuated
effect on LacCer induced generation of O2- in endothelial cells (Eahy 926 cells): reduced

Cc1nnc2n1-c1sc(CCC(=O)N3CCOCC3)cc1C(c1ccccc1Cl)=NC2 [WEB 2086]
effect on LacCer-stimulated Mac-1 upregulation on PMNs (Mac-1 (CD11b/CD18)): No significant inhibition

CCN(CC)CCCC(C)Nc1c2ccc(Cl)cc2nc2ccc(OC)cc12 (centres unmarked) [quinacrine, quinacrine dihydrochloride]
effect on LacCer induced PMN adhesion [3]: inhibited
effect on LacCer-stimulated Mac-1 upregulation on PMNs (Mac-1 (CD11b/CD18); [7]): did block

TNF-α
stimulation of ICAM-1 expression (ICAM-1; [8]): concentration-dependent stimulation
increase in GalT-2 activity (GalT-2 [4]; [8]): 1.7 fold

C=C(C)[C@H]1Cc2c(ccc3c2O[C@@H]2COc4cc(OC)c(OC)cc4[C@@H]2C3=O)O1 [rotenone]
effect on NADPH oxidase activity in membrane preparations of LacCer stimulated cells (NADPH oxidase; DPI 10 μM 30 minutes, rotenone 1 mM): did not inhibit

COc1cc(C(C)=O)ccc1O [apocyanin]
effect on LacCer induced superoxide generation in PMNs (PMNs [5]): relatively less inhibitory

glucosylceramide [GIcCer]
Mac-1 expression on PMNs, other GSL (Mac-1 (CD11b/CD18)): did not alter

S=C(S)N1CCCC1 [PDTC]
effect on LacCer mediated stimulation of ICAM-1 expression (ICAM-1): inhibited

c1ccc2c(c1)[I+]c1ccccc1-2 [DPI, diphenyleneiodonium chloride]
effect on LacCer induced superoxide generation in PMNs (PMNs [5]): relatively less inhibitory
effect on LacCer mediated stimulation of ICAM-1 expression (ICAM-1): inhibited
effect on neutrophil ROM generation induced by LacCer (PMNs [1]): completely blocked
effect on LacCer-stimulated Mac-1 upregulation on PMNs (Mac-1 (CD11b/CD18)): did not inhibit
effect on NADPH oxidase activity in membrane preparations of LacCer stimulated cells (NADPH oxidase): attenuated
effect on LacCer-induced neutrophil adhesion [2]: attenuated
effect on LacCer induced generation of O2- in endothelial cells (Eahy 926 cells): failed to respond

Oc1ncnc2[nH]ncc12 [allopurinol]
effect on LacCer induced generation of O2- in endothelial cells (Eahy 926 cells): failed to inhibit

O=c1c(-c2ccc(O)cc2)coc2cc(O)cc(O)c12 [genistein]
effect on LacCer-stimulated Mac-1 upregulation on PMNs (Mac-1 (CD11b/CD18); [7]): did not inhibit

CCCCCCCCCC(=O)N[C@H](CN1CCOCC1)[C@H](O)c1ccccc1 [D-PDMP, (1R, 2R)-1-phenyl-2-decanoylamino-3-morpholino-1-propanol]
inhibition of GlcT-1 (GlcT-1): inhibits
intimal proliferation at the site of balloon angioplasty (intimal proliferation): complete absence of intimal proliferation
decrease of GalT-2 activity versus vehicle (GalT-2 [6]): ~ 1.7 fold
ICAM-1 expression induced by TNF-α (ICAM-1; [9]): concentration-dependent decrease
GalT-2 activity induced by TNF-α (GalT-2 [4]; [9]): concentration-dependent decrease
level of GicCer and LacCer (GlcCer, LacCer; 10 mg/kg intramuscular, 15 days): decrease significantly
GSL Concentration GlcCer (GlcCer, LacCer; [10]): 6 μg/gm wet weight
GSL Concentration LacCer (GlcCer, LacCer; [10]): 10 μg/gm wet weight
proliferation of vascular cells (vascular cells): reduces

CC(=O)OCOC(=O)CN(CC(=O)OCOC(C)=O)c1ccccc1OCCOc1ccccc1N(CC(=O)OCOC(C)=O)CC(=O)OCOC(C)=O [BAPTA/AM]
effect on LacCer-stimulated Mac-1 upregulation on PMNs (Mac-1 (CD11b/CD18); [7]): did not inhibit

CN[C@@H]1C[C@H]2O[C@@](C)([C@@H]1OC)n1c3ccccc3c3c4c(c5c6ccccc6n2c5c31)C(=O)NC4 [staurosporine]
effect on LacCer-stimulated Mac-1 upregulation on PMNs (Mac-1 (CD11b/CD18)): did not inhibit

ceramide
Mac-1 expression on PMNs, other GSL (Mac-1 (CD11b/CD18)): did not alter
